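Dose response: 5 concentrations. Exposure: 48 h. Format: 96-well plates. Endpoint: linear interpolation; highest concentration if not reached. TGI marks complete inhibition of growth.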
How the values were obtained:
Assay in all cases: growth of human tumour cells (NCI), 48 h
[1] = tested on: KM12 colon
[2] = tested on: SK-MEL-28 melanoma
[3] = tested on: SK-OV-3 ovarian
[4] = tested on: A549 NSCLC
[5] = tested on: COLO 205 colon
[6] = tested on: UO-31 renal
[7] = tested on: M19-MEL melanoma
[8] = tested on: U251 CNS
[9] = tested on: SN12C renal
[10] = tested on: SK-MEL-5 melanoma
[11] = tested on: SF-539 CNS
[12] = tested on: CAKI-1 renal
[13] = tested on: LOX IMVI melanoma
[14] = tested on: RPMI-8226 leukemia
[15] = tested on: A498 renal
[16] = tested on: NCI-H226 lung
[17] = tested on: SF-268 CNS
[18] = tested on: HCT-116 colon
[19] = tested on: OVCAR-3 ovarian
[20] = tested on: TK-10 renal
[21] = tested on: SNB-78 CNS
[22] = tested on: NCI-H522 lung
[23] = tested on: NCI-H460 lung
[24] = tested on: SW-620 colon
[25] = tested on: UACC-62 melanoma
[26] = tested on: 786-0 renal
[27] = tested on: RXF-631 renal
[28] = tested on: LXFL 529 NSCLC
[29] = tested on: OVCAR-8 ovarian
[30] = tested on: MOLT-4 leukemia
[31] = tested on: HOP-92 NSCLC
[32] = tested on: EKVX NSCLC
[33] = tested on: MALME-3M melanoma
[34] = tested on: ACHN renal
[35] = tested on: XF 498 CNS
[36] = tested on: SR leukemia
[37] = tested on: NCI-H23 lung
[38] = tested on: DLD-1 colon
[39] = tested on: IGROV1 ovarian
[40] = tested on: KM20L2 colon
[41] = tested on: OVCAR-4 ovarian
[42] = tested on: SNB-75 CNS
[43] = tested on: HCT-15 colon
[44] = tested on: UACC-257 melanoma
[45] = tested on: HOP-18 NSCLC
[46] = tested on: M14 melanoma
[47] = tested on: HCC-2998 colon
[48] = tested on: HT29 colon
[49] = tested on: HOP-62 NSCLC
[50] = tested on: OVCAR-5 ovarian
[51] = tested on: CCRF-CEM leukemia
[52] = tested on: SF-295 CNS
[53] = tested on: RXF 393 renal
[54] = tested on: K-562 leukemia
[55] = tested on: SNB-19 CNS
[56] = tested on: DMS 273 small cell lung
[57] = tested on: HL-60(TB) leukemia
[58] = tested on: SK-MEL-2 melanoma
[59] = tested on: DMS 114 small cell lung

SMILES: CCC1CN2CCC3(c4ccccc4)CC(C(=O)OC)=CC1C23 (centres undefined)
- TGI [1]: 28.2 µM
- TGI [2]: 31.5 µM
- TGI [3]: 26.5 µM
- TGI [4]: 35.8 µM
- TGI [5]: 31.1 µM
- TGI [6]: 27.1 µM
- TGI [7]: 31.1 µM
- TGI [8]: 30 µM
- TGI [9]: 30.4 µM
- TGI [10]: 30.2 µM
- TGI [11]: 31.3 µM
- TGI [12]: 33.1 µM
- TGI [13]: 28.3 µM
- TGI [14]: > 100 µM
- TGI [15]: 33.9 µM
- TGI [16]: 36.2 µM
- TGI [17]: 27.7 µM
- TGI [18]: 29.4 µM
- TGI [19]: 33.8 µM
- TGI [20]: 58.6 µM
- TGI [21]: 44 µM
- TGI [22]: 27.2 µM
- TGI [23]: 32.5 µM
- TGI [24]: 31.8 µM
- TGI [25]: 30.2 µM
- TGI [26]: 31.9 µM
- TGI [27]: 28.5 µM
- TGI [28]: 28.7 µM
- TGI [29]: 33.7 µM
- TGI [30]: > 100 µM
- TGI [31]: 25.9 µM
- TGI [32]: 34.1 µM
- TGI [33]: 29.7 µM
- TGI [34]: 30.4 µM
- TGI [35]: 18.2 µM
- TGI [36]: > 100 µM
- TGI [37]: 28.9 µM
- TGI [38]: 39 µM
- TGI [39]: 47.3 µM
- TGI [40]: 30.3 µM
- TGI [41]: 27.8 µM
- TGI [42]: 51 µM
- TGI [43]: 31.9 µM
- TGI [44]: 32 µM
- TGI [45]: 35.1 µM
- TGI [46]: 28.2 µM
- TGI [47]: 30.7 µM
- TGI [48]: 31.7 µM
- TGI [49]: 38.4 µM
- TGI [50]: 20.6 µM
- TGI [51]: > 100 µM
- TGI [52]: 33.1 µM
- TGI [53]: 33.6 µM
- TGI [54]: 24.9 µM
- TGI [55]: 35 µM

SMILES: CC1=CC(=O)N(c2c(C)cccc2Cl)C(C)N1 (centres undefined)
- TGI [1]: > 100 µM
- TGI [2]: > 100 µM
- TGI [3]: > 100 µM
- TGI [4]: > 100 µM
- TGI [5]: > 100 µM
- TGI [6]: > 100 µM
- TGI [7]: > 100 µM
- TGI [8]: > 100 µM
- TGI [56]: > 100 µM
- TGI [9]: > 100 µM
- TGI [10]: > 100 µM
- TGI [11]: > 100 µM
- TGI [12]: > 100 µM
- TGI [13]: > 100 µM
- TGI [15]: > 100 µM
- TGI [16]: > 100 µM
- TGI [17]: > 100 µM
- TGI [18]: > 100 µM
- TGI [19]: > 100 µM
- TGI [20]: > 100 µM
- TGI [21]: > 100 µM
- TGI [22]: > 100 µM
- TGI [23]: > 100 µM
- TGI [24]: > 100 µM
- TGI [25]: > 100 µM
- TGI [26]: > 100 µM
- TGI [27]: > 100 µM
- TGI [28]: > 100 µM
- TGI [29]: > 100 µM
- TGI [57]: > 100 µM
- TGI [30]: > 100 µM
- TGI [31]: > 100 µM
- TGI [32]: > 100 µM
- TGI [33]: > 100 µM
- TGI [34]: > 100 µM
- TGI [58]: > 100 µM
- TGI [37]: > 100 µM
- TGI [38]: > 100 µM
- TGI [39]: > 100 µM
- TGI [40]: > 100 µM
- TGI [41]: > 100 µM
- TGI [42]: > 100 µM
- TGI [43]: > 100 µM
- TGI [44]: > 100 µM
- TGI [45]: > 100 µM
- TGI [46]: > 100 µM
- TGI [47]: > 100 µM
- TGI [48]: > 100 µM
- TGI [49]: > 100 µM
- TGI [50]: > 100 µM
- TGI [51]: > 100 µM
- TGI [52]: > 100 µM
- TGI [59]: > 100 µM
- TGI [53]: > 100 µM
- TGI [54]: > 100 µM
- TGI [55]: > 100 µM

SMILES: Cc1ccccc1N=NC(C(=O)c1ccccc1)C(=O)c1ccccc1
- TGI [1]: > 100 µM
- TGI [2]: > 100 µM
- TGI [3]: 88.4 µM
- TGI [4]: > 100 µM
- TGI [5]: > 100 µM
- TGI [6]: 50.2 µM
- TGI [7]: 42.5 µM
- TGI [8]: > 100 µM
- TGI [56]: 62.3 µM
- TGI [9]: 58 µM
- TGI [10]: 55.9 µM
- TGI [11]: 81.8 µM
- TGI [12]: 96.6 µM
- TGI [14]: 60.9 µM
- TGI [15]: > 100 µM
- TGI [16]: 32.2 µM
- TGI [17]: > 100 µM
- TGI [18]: 54.4 µM
- TGI [19]: > 100 µM
- TGI [20]: > 100 µM
- TGI [22]: 39 µM
- TGI [24]: > 100 µM
- TGI [25]: 59.7 µM
- TGI [26]: 78.3 µM
- TGI [27]: > 100 µM
- TGI [28]: > 100 µM
- TGI [29]: > 100 µM
- TGI [57]: 37.9 µM
- TGI [30]: 74.3 µM
- TGI [31]: 46.4 µM
- TGI [32]: 88.3 µM
- TGI [33]: > 100 µM
- TGI [34]: > 100 µM
- TGI [35]: 55.1 µM
- TGI [58]: 46.5 µM
- TGI [37]: 55.2 µM
- TGI [38]: > 100 µM
- TGI [39]: > 100 µM
- TGI [40]: 70.7 µM
- TGI [41]: 85.3 µM
- TGI [42]: 70.5 µM
- TGI [43]: 80.8 µM
- TGI [44]: > 100 µM
- TGI [46]: 39.1 µM
- TGI [47]: > 100 µM
- TGI [48]: > 100 µM
- TGI [49]: 70.6 µM
- TGI [50]: 81.2 µM
- TGI [51]: 53.9 µM
- TGI [52]: > 100 µM
- TGI [59]: 50.7 µM
- TGI [54]: > 100 µM
- TGI [55]: 85.5 µM

Reference: PubChem BioAssay (NCI)
